The assay relates to H3K4me3 in HGS2 cells. The assay can be described thus: immunoblot of H3K4me3, HGS2. The following applies: HGS2, 10 μM, 72 hours. Format: cell-based, mouse. The protocol:
FIG. 6A-FIG. 6K show KDM5A inhibition promotes anti-tumor immune response in vivo. (FIG. 6A) Expression of H3K4me3, Kdm5a and a loading control b-actin in an independent second doxycycline-inducible shKdm5a ID8 clone treated with or without 2 μg/mL of doxycycline. (FIG. 6B) Same as FIG. 6A, but doxycycline-inducible shKdm5a ID8 cells were plated into 24 well plates and treated with 2 μg/mL of doxycycline the same day. Cells were incubated for 8 days. Relative cell viability was determined by colony formation assay. (FIG. 6C) Expression of H3K4me3, Kdm5a and a loading control b-actin in HGS2 cells treated 10 μM of CPI-455 or vehicle controls for 72 hours. […] Relative cell viability was determined by colony formation assay. (FIG. 6E-FIG. 6F) Bioluminescence signal was measured by IVIS system in indicated animal groups in the immunocompetent C57BL/6 mouse model once a week (FIG. 6E) and the survival of the indicated groups was determined by Kaplan-Meier survival curves (FIG. 6F) (n=5 mice per group). […] Ascites volumes produced from the indicated groups were quantified (FIG. 6H). n=5 mice per group. […] (FIG. 6J-FIG. 6K) Bioluminescence signal was measured by IVIS system in indicated animal groups in the immunocompromised NSG mouse model once a week (FIG. 6J), or examined for Kaplan-Meier survival curves for the indicated groups (FIG. 6K). […]
A general note: Immunoblotting shows a protein as a band on a membrane.

Experimental findings from US20240139197A1, “INHIBITION OF KDM5A FOR PROMOTING ANTIGEN PRESENTATION, INCREASING CD8+ T CELL INFILTRATION AND BOOSTING ANTI-TUMOR IMMUNE RESPONSE” (The Wistar Institute of Anatomy and Biology, priority 2022, published 2024) are described below.

Take CPI-455: the H3K4me3 levels result is recorded as “increase H3K4me3 levels”.
